# According to patent publication US20220323425A1, “CO-POTENTIATORS FOR THERAPY OF CYSTIC FIBROSIS CAUSED BY MINIMAL FUNCTION CFTR MUTANTS” (THE REGENTS OF THE UNIVERSITY OF CALIFORNIA, priority 2019, published 2022):
# What was measured:
# W1282L-CFTR = molecular target: T1, W1282L-CFTR (Homo sapiens, UniProt P13569, W1282L); assay: Short-circuit current in FRT cells expressing W1282L-CFTR; type: cell-based; conditions: predicted W1282X read-through product
# T1 construct: introduced into full-length CFTR cDNA in the vector pcDNA3.1/Zeo (+); expressed in transfected cells; host or cells: FRT cells, pIRESpuro3 vector, puromycin-selected clonal lines
# Experimental: (§1) Compounds that promote read-through of PTCs to generate full-length CFTR have shown limited efficacy in cell culture studies (14-16). Though the read-through drug ataluren (PTC124) was ineffective in clinical trials (17), newer compounds are in development. The ability of ASP-11 to activate chloride current in predicted W1282X-CFTR read-through products was investigated. […] FRT cell lines were generated that stably expressing W1282L-, W1282C- and W1282R-CFTR.
# (§2) Short-circuit current was measured on cells cultured on permeable supports (Corning) as described (Haggie, 2017; Phuan, 2018). For FRT cells, the basolateral membrane was permeabilized with 250 μg/mL amphotericin B, and experiments were done using a HCO3^−-buffered system (in mM: 120 NaCl, 5 KCl, 1 MgCl2, 1 CaCl2), 5 Hepes, 25 NaHCO3, 10 glucose, pH 7.4) with a basolateral to apical chloride gradient (60 mM NaCl replaced by sodium gluconate in the apical solution). For human airway epithelial cells, symmetrical HCO3^−-buffered solutions (containing 120 mM NaCl) were used. Cells were equilibrated with 95% O2, 5% CO2 and maintained at 37° C. Hemichambers were connected to a DVC-1000 voltage clamp (World Precision Instruments Inc., Sarasota, Fla.) via Ag/AgCl electrodes and 3 M KCl agar bridges for recording of the short-circuit current.
# I1234del-CFTR = I1234del-CFTR (Homo sapiens, UniProt P13569, DEL1234-1239); assay: Short-circuit current in FRT cells expressing I1234del-CFTR; type: cell-based; set-up: introduced into full-length CFTR cDNA in the vector pcDNA3.1/Zeo (+); expressed in transfected cells; host or cells: FRT cells, pIRESpuro3 vector, puromycin-selected clonal lines; conditions: 20 μM ASP-11 with 5 μM VX-770, 20 μM forskolin
# Experimental: as §2
# GraphPad Prism software (GraphPad Inc., San Diego, Calif., USA) was used for statistical analysis. EC50 values were determined by non-linear regression to a single-site inhibition model. Statistical significance was determined using unpaired Student's t test, with P<0.05 considered significant.
# Compound 2i was also tested on a second minimal function CFTR mutation, I1234del-CFTR, which is generated by the c.3700A>G mutation that results in deletion of 6 amino acids from the CFTR polypeptide (p.Ile1234_Arg1239del-CFTR, hereafter termed I1234del-CFTR) due to introduction of a cryptic splice site in the CFTR transcript.
# N1303K-CFTR [1] = molecular target: T2, N1303K-CFTR (Homo sapiens, UniProt P13569, N1303K); assay: Short-circuit current in FRT cells expressing N1303K-CFTR; type: cell-based; set-up: expressed in transfected cells; host or cells: Fischer rat thyroid (FRT) cells
# R560T = molecular target: T3, R560T (Homo sapiens, UniProt P13569, R560T); assay: Short-circuit current in FRT cells expressing R560T-CFTR; type: cell-based; conditions: 20 μM forskolin, 5 μM VX-770, 20 μM ASP-11
# T3 construct: host or cells: FRT cells
# Experimental: as §2
# Q1313X-CFTR = molecular target: T4, Q1313X-CFTR (Homo sapiens, UniProt P13569); assay: Short-circuit current in FRT cells expressing Q1313X-CFTR; type: cell-based; conditions: 20 μM ASP-11 with 5 μM VX-770, 20 μM forskolin
# T4 construct: several truncated forms of CFTR resulting from premature termination codons (PTCs) located in NBD2; expressed in transfected cells; host or cells: FRT cells, pIRESpuro3 vector, puromycin-selected clonal lines
# Outline: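 FRT cells on permeable supports; basolateral membrane permeabilized with 250 μg/mL amphotericin B; HCO3^−-buffered solution, pH 7.4, 37° C, 95% O2/5% CO2, with basolateral-to-apical chloride gradient (60 mM apical NaCl replaced by gluconate). Short-circuit current recorded under voltage clamp; EC50 by nonlinear regression, single-site model.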
# R1162X-CFTR = molecular target: T5, R1162X-CFTR (Homo sapiens, UniProt P13569); assay: Short-circuit current in FRT cells expressing R1162X-CFTR; type: cell-based; conditions: 20 μM forskolin, 5 μM VX-770, 20 μM ASP-11, 3 μM VX-809
# T5 construct: the C-terminus PTC mutant R1162X-CFTR (predicted to truncate CFTR just after MSD2); host or cells: FRT cells
# Experimental: as §2
# W1282C-CFTR = molecular target: T6, W1282C-CFTR (Homo sapiens, UniProt P13569, W1282C); assay: Short-circuit current in FRT cells expressing W1282C-CFTR; type: cell-based; conditions: predicted W1282X read-through product
# T6 construct: introduced into full-length CFTR cDNA in the vector pcDNA3.1/Zeo (+); expressed in transfected cells; host or cells: FRT cells, pIRESpuro3 vector, puromycin-selected clonal lines
# Experimental: as §1, §2
# V520F = molecular target: T7, V520F (Homo sapiens, UniProt P13569, V520F); assay: Short-circuit current in FRT cells expressing V520F-CFTR; type: cell-based; conditions: 20 μM forskolin, 5 μM VX-770, 20 μM ASP-11
# T7 construct: host or cells: FRT cells
# Experimental: as §2
# S492F-CFTR = molecular target: T8, S492F-CFTR (Homo sapiens, UniProt P13569, S492F); assay: Short-circuit current in FRT cells expressing S492F-CFTR; type: cell-based; conditions: 20 μM forskolin, 5 μM VX-770, 20 μM ASP-11, 3 μM VX-809 pretreatment
# T8 construct: host or cells: FRT cells
# Experimental: as §2
# M1101K = molecular target: T9, M1101K (Homo sapiens, UniProt P13569, M1101K); assay: Short-circuit current in FRT cells expressing M1101K-CFTR; type: cell-based; conditions: 20 μM forskolin, 5 μM VX-770, 20 μM ASP-11
# T9 construct: host or cells: FRT cells
# Experimental: as §2
# R334W = molecular target: T10, R334W (Homo sapiens, UniProt P13569, R334W); assay: Short-circuit current in FRT cells expressing R334W-CFTR; type: cell-based; conditions: 20 μM forskolin, 5 μM VX-770, 20 μM ASP-11
# T10 construct: host or cells: FRT cells
# Experimental: as §2
# W1282X-CFTR = molecular target: T11, W1282X-CFTR (Homo sapiens, UniProt P13569); conditions: ASP-11 in combination with VX-770; truncated W1282X-CFTR product (CFTR1281); cited from earlier work
# T11 construct: CFTR1281 (the truncation product generated by W1282X-CFTR); expressed in transfected cells
# N1303K-CFTR [2] = molecular target: T2, N1303K-CFTR; set-up: expressed in transfected cells; host or cells: Fischer rat thyroid (FRT) cells; conditions: ASP-11 in combination with VX-770; transfected FRT cells; cited from earlier work
# L1077P = molecular target: T12, L1077P (Homo sapiens, UniProt P13569, L1077P); assay: Short-circuit current in FRT cells expressing L1077P-CFTR; type: cell-based; conditions: 20 μM forskolin, 5 μM VX-770, 20 μM ASP-11
# T12 construct: host or cells: FRT cells
# Experimental: as §2
# G551D-CFTR = G551D-CFTR (Homo sapiens, UniProt P13569, G551D); conditions: cited from earlier work
# Sequence of G551D-CFTR (P13569 whole entry G551D): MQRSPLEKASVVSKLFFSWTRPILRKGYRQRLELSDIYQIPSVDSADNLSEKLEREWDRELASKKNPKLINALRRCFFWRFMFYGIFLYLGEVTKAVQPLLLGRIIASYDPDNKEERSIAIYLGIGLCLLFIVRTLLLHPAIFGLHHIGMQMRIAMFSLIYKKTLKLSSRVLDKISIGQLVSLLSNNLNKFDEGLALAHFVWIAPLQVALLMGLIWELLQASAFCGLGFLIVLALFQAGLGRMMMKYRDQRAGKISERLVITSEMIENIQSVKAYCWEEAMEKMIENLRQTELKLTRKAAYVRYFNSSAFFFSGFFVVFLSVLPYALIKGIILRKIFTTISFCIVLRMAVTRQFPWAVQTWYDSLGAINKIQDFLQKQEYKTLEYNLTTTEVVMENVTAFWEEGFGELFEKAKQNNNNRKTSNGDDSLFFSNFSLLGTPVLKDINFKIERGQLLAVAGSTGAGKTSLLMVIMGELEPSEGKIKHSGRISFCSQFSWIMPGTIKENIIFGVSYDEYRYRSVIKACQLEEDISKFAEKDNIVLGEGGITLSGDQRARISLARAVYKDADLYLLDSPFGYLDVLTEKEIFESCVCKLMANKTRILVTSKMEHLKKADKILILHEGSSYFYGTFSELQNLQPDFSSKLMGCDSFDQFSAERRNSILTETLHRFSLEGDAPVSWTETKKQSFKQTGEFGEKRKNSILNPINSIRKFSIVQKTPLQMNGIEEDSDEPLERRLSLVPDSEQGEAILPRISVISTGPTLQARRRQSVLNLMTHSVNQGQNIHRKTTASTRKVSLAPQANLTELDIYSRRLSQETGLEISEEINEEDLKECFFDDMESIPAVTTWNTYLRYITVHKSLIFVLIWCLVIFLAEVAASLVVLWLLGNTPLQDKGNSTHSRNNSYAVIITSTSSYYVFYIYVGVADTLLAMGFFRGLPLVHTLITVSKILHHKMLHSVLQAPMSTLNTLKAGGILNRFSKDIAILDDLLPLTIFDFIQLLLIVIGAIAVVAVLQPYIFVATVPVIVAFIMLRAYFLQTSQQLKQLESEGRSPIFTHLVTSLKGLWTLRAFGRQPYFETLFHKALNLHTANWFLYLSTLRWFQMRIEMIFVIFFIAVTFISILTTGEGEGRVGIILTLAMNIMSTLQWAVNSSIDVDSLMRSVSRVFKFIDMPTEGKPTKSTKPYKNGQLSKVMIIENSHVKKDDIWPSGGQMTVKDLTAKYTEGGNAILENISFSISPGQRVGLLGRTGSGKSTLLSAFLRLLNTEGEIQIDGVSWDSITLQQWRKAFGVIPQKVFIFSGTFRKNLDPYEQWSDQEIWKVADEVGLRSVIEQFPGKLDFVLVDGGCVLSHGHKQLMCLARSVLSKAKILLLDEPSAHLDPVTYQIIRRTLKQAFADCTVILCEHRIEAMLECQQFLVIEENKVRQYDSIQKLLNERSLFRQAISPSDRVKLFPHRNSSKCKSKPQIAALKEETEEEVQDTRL
# T2 sequence (P13569 whole entry N1303K): as the sequence (P13569 whole entry G551D) above, with D551G, N1303K counted along it
# T3 sequence (P13569 whole entry R560T): as the sequence (P13569 whole entry G551D) above, with D551G, R560T counted along it
# T4 sequence (P13569 1-1312 limits assumed): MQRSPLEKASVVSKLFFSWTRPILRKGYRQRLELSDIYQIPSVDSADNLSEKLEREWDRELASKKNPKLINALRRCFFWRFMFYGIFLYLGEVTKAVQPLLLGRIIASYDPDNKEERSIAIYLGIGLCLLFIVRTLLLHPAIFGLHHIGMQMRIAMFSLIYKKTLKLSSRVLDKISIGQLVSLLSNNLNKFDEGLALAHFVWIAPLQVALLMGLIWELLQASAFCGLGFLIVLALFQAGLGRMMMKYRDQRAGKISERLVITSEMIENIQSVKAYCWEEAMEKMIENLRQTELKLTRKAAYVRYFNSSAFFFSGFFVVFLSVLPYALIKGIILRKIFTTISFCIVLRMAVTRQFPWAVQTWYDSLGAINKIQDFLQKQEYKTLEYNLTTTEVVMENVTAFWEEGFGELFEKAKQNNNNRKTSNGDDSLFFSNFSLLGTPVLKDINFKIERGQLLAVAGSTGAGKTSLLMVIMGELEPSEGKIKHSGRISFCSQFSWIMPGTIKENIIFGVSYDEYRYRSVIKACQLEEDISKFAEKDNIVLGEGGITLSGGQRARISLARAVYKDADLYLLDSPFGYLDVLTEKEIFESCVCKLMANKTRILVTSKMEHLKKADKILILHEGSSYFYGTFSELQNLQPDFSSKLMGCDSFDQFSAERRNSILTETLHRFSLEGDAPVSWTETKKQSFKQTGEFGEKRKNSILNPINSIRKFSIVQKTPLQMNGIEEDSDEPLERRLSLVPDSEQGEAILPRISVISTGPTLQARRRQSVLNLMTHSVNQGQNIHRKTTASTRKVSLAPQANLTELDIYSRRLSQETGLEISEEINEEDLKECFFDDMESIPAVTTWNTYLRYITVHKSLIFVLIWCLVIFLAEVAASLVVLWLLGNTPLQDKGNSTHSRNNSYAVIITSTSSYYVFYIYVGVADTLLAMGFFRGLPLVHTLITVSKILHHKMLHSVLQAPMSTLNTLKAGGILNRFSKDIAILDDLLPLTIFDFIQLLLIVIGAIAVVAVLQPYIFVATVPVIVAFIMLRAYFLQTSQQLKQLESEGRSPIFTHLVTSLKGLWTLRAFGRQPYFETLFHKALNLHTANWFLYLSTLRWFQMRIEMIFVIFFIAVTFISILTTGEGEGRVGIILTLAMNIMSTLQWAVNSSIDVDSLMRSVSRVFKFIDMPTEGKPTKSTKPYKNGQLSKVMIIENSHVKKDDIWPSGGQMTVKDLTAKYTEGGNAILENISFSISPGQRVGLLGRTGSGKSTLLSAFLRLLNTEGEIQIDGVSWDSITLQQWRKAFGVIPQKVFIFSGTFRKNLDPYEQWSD
# Sequence of I1234del-CFTR (P13569 with tags, fused parts or gaps DEL1234-1239): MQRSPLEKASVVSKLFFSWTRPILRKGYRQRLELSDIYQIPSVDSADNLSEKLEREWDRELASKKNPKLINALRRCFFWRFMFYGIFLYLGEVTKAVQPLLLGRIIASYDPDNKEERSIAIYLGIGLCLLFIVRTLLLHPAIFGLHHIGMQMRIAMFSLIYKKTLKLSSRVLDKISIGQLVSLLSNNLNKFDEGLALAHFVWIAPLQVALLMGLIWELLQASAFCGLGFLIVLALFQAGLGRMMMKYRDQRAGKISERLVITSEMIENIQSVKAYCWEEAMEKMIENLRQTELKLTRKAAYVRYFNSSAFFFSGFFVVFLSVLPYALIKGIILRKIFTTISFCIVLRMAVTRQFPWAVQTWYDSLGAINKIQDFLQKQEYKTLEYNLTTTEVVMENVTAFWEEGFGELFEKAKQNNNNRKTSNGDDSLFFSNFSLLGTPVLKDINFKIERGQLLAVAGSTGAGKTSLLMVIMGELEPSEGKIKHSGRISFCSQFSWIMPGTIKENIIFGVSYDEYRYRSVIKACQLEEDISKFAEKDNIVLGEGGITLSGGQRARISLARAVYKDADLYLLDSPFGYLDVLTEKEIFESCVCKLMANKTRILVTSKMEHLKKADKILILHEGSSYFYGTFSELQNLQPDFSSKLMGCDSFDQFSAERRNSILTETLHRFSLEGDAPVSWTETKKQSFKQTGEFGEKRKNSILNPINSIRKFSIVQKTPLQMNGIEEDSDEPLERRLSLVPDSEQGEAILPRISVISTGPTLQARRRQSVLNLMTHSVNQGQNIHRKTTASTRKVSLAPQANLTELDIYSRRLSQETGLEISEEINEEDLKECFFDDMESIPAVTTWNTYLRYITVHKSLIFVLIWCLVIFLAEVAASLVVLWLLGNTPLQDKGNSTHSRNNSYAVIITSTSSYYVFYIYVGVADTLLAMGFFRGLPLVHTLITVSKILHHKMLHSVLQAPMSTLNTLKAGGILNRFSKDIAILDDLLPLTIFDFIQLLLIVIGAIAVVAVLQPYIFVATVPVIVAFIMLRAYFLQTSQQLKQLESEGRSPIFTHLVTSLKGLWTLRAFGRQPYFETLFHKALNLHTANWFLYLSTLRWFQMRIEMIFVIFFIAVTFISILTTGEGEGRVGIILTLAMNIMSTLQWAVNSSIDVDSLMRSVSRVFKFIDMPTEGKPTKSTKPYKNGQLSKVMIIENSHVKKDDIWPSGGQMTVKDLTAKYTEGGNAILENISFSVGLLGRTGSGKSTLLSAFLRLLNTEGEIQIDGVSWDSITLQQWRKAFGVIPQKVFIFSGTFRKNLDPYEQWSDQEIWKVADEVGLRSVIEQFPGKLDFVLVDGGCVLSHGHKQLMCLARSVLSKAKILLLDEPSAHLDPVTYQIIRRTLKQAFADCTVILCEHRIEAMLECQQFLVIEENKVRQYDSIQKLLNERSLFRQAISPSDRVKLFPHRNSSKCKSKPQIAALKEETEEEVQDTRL
# T6 sequence (P13569 whole entry W1282C): as the sequence (P13569 whole entry G551D) above, with D551G, W1282C counted along it
# T10 sequence (P13569 whole entry R334W): as the sequence (P13569 whole entry G551D) above, with R334W, D551G counted along it
# T1 sequence (P13569 whole entry W1282L): as the sequence (P13569 whole entry G551D) above, with D551G, W1282L counted along it
# T8 sequence (P13569 whole entry S492F): as the sequence (P13569 whole entry G551D) above, with S492F, D551G counted along it
# T12 sequence (P13569 whole entry L1077P): as the sequence (P13569 whole entry G551D) above, with D551G, L1077P counted along it
# T9 sequence (P13569 whole entry M1101K): as the sequence (P13569 whole entry G551D) above, with D551G, M1101K counted along it
# T7 sequence (P13569 whole entry V520F): as the sequence (P13569 whole entry G551D) above, with V520F, D551G counted along it
smiles,measurement,setting,value
"CCCCn1cc(S(=O)(=O)Nc2ccc(CC)cc2)c2cccnc21 [ASP-11, 1-butyl-N-(4-ethylphenyl)-1H-pyrrolo[2,3-b]pyridine-3-sulfonamide]",short-circuit current effect additional to forskolin,W1282L-CFTR,little additional
same,increase of chloride current compared to VX-770,I1234del-CFTR,3-9 fold
same,short-circuit current response when added after VX-770,"N1303K-CFTR [1]; 20 μM forskolin, 5 μM VX-770, 20 μM test potentiator",synergy
same,activation by two Class II potentiators added together,"N1303K-CFTR [1]; W1282Xpot-C01 and ASP-11, 20 μM each, no Class I potentiator",little activation
same,short-circuit current response,R560T,absence of response
same,increase of chloride current compared to VX-770,Q1313X-CFTR,3-9 fold
same,short-circuit current response,R1162X-CFTR,did not respond
same,short-circuit current effect additional to forskolin,W1282C-CFTR,significant further effects
same,short-circuit current response,V520F,absence of response
same,short-circuit current response,S492F-CFTR,no response
same,short-circuit current response,M1101K,absence of response
same,short-circuit current response,R334W,absence of response
same,increase of chloride current compared with VX-770 alone,W1282X-CFTR,~8 fold
same,increase of chloride current compared with VX-770 alone,N1303K-CFTR [2],~8 fold
same,short-circuit current response,L1077P,absence of response
same,improvement of chloride channel function compared with VX-770 alone,G551D-CFTR; ASP-11 in combination with VX-770,~50%
same,activation of G551D-CFTR,G551D-CFTR; previously shown,activates G551D-CFTR
